Source: ChEMBL document CHEMBL1131960, “Simple mono-derivatisation of the aryl moiety of D4A and DDA-based phosphoramidate prodrugs significantly enhances their anti-HIV potency in cell culture” (Bioorg Med Chem Lett, 1999)

Tests used:
[1] = test system: esterase; assay: Compound was evaluated for esterase half-life (t 1/2) period using Pig Liver Esterase (PLE) assay; assay type: ADME, Sus scrofa
[2] = test system: CCRF-CEM; assay: Compound was evaluated for its effective concentration (potency) to inhibit the growth of HIV-1 in CEM cell culture.; assay type: functional, cell-based; settings: Homo sapiens
[3] = test system: CCRF-CEM; assay: Compound was evaluated for its effective concentration (potency) to inhibit the growth of HIV-2 in CEM cell culture.; assay type: functional, cell-based; settings: Homo sapiens
[4] = Compound was evaluated for its lipophilicity by 1-octanol/water (phosphate buffer, pH 7.0) and the partition coefficient (log P) was reported.; assay type: physicochemical
[5] = test system: CCRF-CEM; assay: Compound was evaluated for its concentration (potency) to inhibit the growth of CEM cells.; assay type: functional; settings: Homo sapiens
[6] = Compound was evaluated for its ability to inhibit the growth of HIV-1 in CEM cell culture (CC50/EC50); assay type: functional, CCRF-CEM
[7] = Compound was evaluated for its ability to inhibit the growth of HIV-2 in CEM cell culture (CC50/EC50); assay type: functional, CCRF-CEM

Compound | half-life [1] [h] | EC50 [2] [µM] | EC50 [3] [µM] | logD [4] | CC50 [5] [µM] | SI [6] | SI [7]
COC(=O)C(C)NP(=O)(OCC1C=CC(n2cnc3c(N)ncnc32)O1)Oc1ccc(I)cc1 (stereo unspecified) | 62 | 0.0023 | 0.0017 | 2.11 | 0.86 | 374 | 506
Nc1ncnc2c1ncn2[C@H]1C=C[C@@H](CO)O1 | – | – | – | -0.36 | 91 | 4.6 | 4.6
COC(=O)C(C)NP(=O)(OCC1C=CC(n2cnc3c(N)ncnc32)O1)Oc1ccc(Br)cc1 (stereo unspecified) | 100 | 0.0032 | 0.0027 | 1.72 | 0.84 | 263 | 311
COC(=O)C(C)NP(=O)(OCC1C=CC(n2cnc3c(N)ncnc32)O1)Oc1ccccc1 (stereo unspecified) | 301 | 0.0055 | – | 0.94 | 3.8 | 691 | 211
Nc1ncnc2c1ncn2[C@H]1CC[C@@H](CO)O1 | – | 4 | 8 | -0.22 | > 100 | >25 | >13

Now from value to compound, other results behind:

half-life [1] [h] | EC50 [2] [µM] | EC50 [3] [µM] | logD [4] | Compound | CC50 [5] [µM] | SI [6] | SI [7]
301 | 0.016 | 0.035 | 0.89 | COC(=O)C(C)NP(=O)(OCC1CCC(n2cnc3c(N)ncnc32)O1)Oc1ccccc1 (stereo unspecified) | 2.57 | 161 | 73
62 | 0.0022 | 0.0027 | 2.07 | COC(=O)C(C)NP(=O)(OCC1CCC(n2cnc3c(N)ncnc32)O1)Oc1cccc(I)c1 (stereo unspecified) | 0.43 | 195 | 159
75 | 0.0023 | 0.0033 | 1.71 | COC(=O)C(C)NP(=O)(OCC1CCC(n2cnc3c(N)ncnc32)O1)Oc1cccc(Br)c1 (stereo unspecified) | 0.56 | 243 | 170
